Experimental data published in US6692880B2, “Electrophotographic toner with stable triboelectric properties” (Heidelberger Druckmaschinen AG, priority 2001, dated 2004).

Assays:
[1] = obtained or extrapolated from tables in Morrison and Boyd; cited from earlier work
[2] = Charge per mass of developers after exercise periods, MECCA device; type: physicochemical; conditions: clear polyester toner; for Fresh Developer 10 min exercise (charge values) / Fresh developer 2 min shake (charge values) / Rebuilt developer 2 min shake (charge values) / Rebuilt developer 10 min exercise (charge values): Binder C resin
[3] = 0.2 pph added acid, 2 pph Bontron E-84
[4] = 1 pph added acid, 2 pph Bontron E-84
[5] = 5 pph added acid, 2 pph Bontron E-84
[6] = 0.2 pph added acid, LLT-101 resin, 2 pph Bontron E-84
[7] = 0.2 pph adipic acid added, 0 pph Bontron E-84, Binder C
[8] = 0.2 pph adipic acid added, 2 pph Bontron E-84, Binder C
[9] = 1 pph added acid, LLT-101 resin, 2 pph Bontron E-84
[10] = 1 pph adipic acid added, 0 pph Bontron E-84, Binder C
[11] = 1 pph adipic acid added, 2 pph Bontron E-84, Binder C
[12] = 5 pph added acid, LLT-101 resin, 2 pph Bontron E-84
[13] = 5 pph adipic acid added, 0 pph Bontron E-84, Binder C
[14] = 5 pph adipic acid added, 2 pph Bontron E-84, Binder C

In the case of CC(C)(C)c1cc(C(=O)O)cc(C(C)(C)C)c1 [3,5-di-t-butylbenzoic, 3,5-di-t-butylbenzoic acid], the “pKa 1” value [1] is listed as 4.6.
With Nc1ccc(C(=O)O)cc1 [4-aminobenzoic acid] the “Fresh Developer 10 min exercise (charge values)” value [2, 3] was −78.1 μC/g, the “Fresh developer 2 min shake (charge values)” value [2, 3] was −35.3 μC/g and the “Rebuilt developer 2 min shake (charge values)” value [2, 3] was −63.2 μC/g. For the same compound, the “Rebuilt developer 10 min exercise (charge values)” value [2, 3] was −72.1 μC/g, the “Fresh Developer 10 min exercise (charge values)” value [2, 4] was −84.8 μC/g and the “Fresh developer 2 min shake (charge values)” value [2, 4] was −40.0 μC/g. The “Rebuilt developer 2 min shake (charge values)” value [2, 4] was −56.8 μC/g, the “Rebuilt developer 10 min exercise (charge values)” value [2, 4] was −67.7 μC/g and the “Fresh Developer 10 min exercise (charge values)” value [2, 5] was −71.6 μC/g. For the same compound, the “Fresh developer 2 min shake (charge values)” value [2, 5] was −36.9 μC/g, the “Rebuilt developer 2 min shake (charge values)” value [2, 5] was −42.6 μC/g and the “Rebuilt developer 10 min exercise (charge values)” value [2, 5] was −60.5 μC/g.
In the case of O=C(O)CCCCC(=O)O [Adipic acid], the “pKa 1” value [1] is listed as 4.5, the “Fresh Developer 10 min exercise (charge per mass)” value [2, 6] is listed as −63.2 μC/g and the “Fresh developer 2 min shake (charge per mass)” value [2, 6] is listed as −25.9 μC/g. For the same compound, the “Rebuilt developer 2 min shake (charge per mass)” value [2, 6] was −56.9 μC/g, the “Rebuilt developer 10 min exercise (charge per mass)” value [2, 6] was −57.7 μC/g and the “Fresh Developer 10 min exercise (charge per mass)” value [2, 7] was −30.1 μC/g. The “Fresh developer 2 min shake (charge per mass)” value [2, 7] was −10.0 μC/g, the “Rebuilt developer 2 min shake (charge per mass)” value [2, 7] was −7.1 μC/g and the “Rebuilt developer 10 min exercise (charge per mass)” value [2, 7] was −17.3 μC/g. For the same compound, the “Fresh Developer 10 min exercise (charge per mass)” value [2, 8] was −64.2 μC/g, the “Fresh developer 2 min shake (charge per mass)” value [2, 8] was −29.6 μC/g and the “Rebuilt developer 2 min shake (charge per mass)” value [2, 8] was −39.4 μC/g. The “Rebuilt developer 10 min exercise (charge per mass)” value [2, 8] was −49.6 μC/g, the “Fresh Developer 10 min exercise (charge per mass)” value [2, 9] was −40.9 μC/g and the “Fresh developer 2 min shake (charge per mass)” value [2, 9] was −23.7 μC/g. For the same compound, the “Rebuilt developer 2 min shake (charge per mass)” value [2, 9] was −27.1 μC/g, the “Rebuilt developer 10 min exercise (charge per mass)” value [2, 9] was −28.8 μC/g and the “Fresh Developer 10 min exercise (charge per mass)” value [2, 10] was −27.6 μC/g. The “Fresh developer 2 min shake (charge per mass)” value [2, 10] was −10.1 μC/g, the “Rebuilt developer 2 min shake (charge per mass)” value [2, 10] was −4.6 μC/g and the “Rebuilt developer 10 min exercise (charge per mass)” value [2, 10] was −12.5 μC/g. For the same compound, the “Fresh Developer 10 min exercise (charge per mass)” value [2, 11] was −41.8 μC/g, the “Fresh developer 2 min shake (charge per mass)” value [2, 11] was −30.4 μC/g and the “Rebuilt developer 2 min shake (charge per mass)” value [2, 11] was −17.1 μC/g. The “Rebuilt developer 10 min exercise (charge per mass)” value [2, 11] was −32.3 μC/g, the “Fresh Developer 10 min exercise (charge per mass)” value [2, 12] was −25.8 μC/g and the “Fresh developer 2 min shake (charge per mass)” value [2, 12] was −18.6 μC/g. For the same compound, the “Rebuilt developer 2 min shake (charge per mass)” value [2, 12] was −17.9 μC/g, the “Rebuilt developer 10 min exercise (charge per mass)” value [2, 12] was −24.5 μC/g and the “Fresh Developer 10 min exercise (charge per mass)” value [2, 13] was −28.4 μC/g. For the same compound, the “Fresh developer 2 min shake (charge per mass)” value [2, 13] was −10.4 μC/g, the “Rebuilt developer 2 min shake (charge per mass)” value [2, 13] was −5.3 μC/g and the “Rebuilt developer 10 min exercise (charge per mass)” value [2, 13] was −11.6 μC/g. The “Fresh Developer 10 min exercise (charge per mass)” value [2, 14] was −35.7 μC/g, the “Fresh developer 2 min shake (charge per mass)” value [2, 14] was −18.5 μC/g and the “Rebuilt developer 2 min shake (charge per mass)” value [2, 14] was −11.2 μC/g. The “Rebuilt developer 10 min exercise (charge per mass)” value [2, 14] was −29.2 μC/g.
In the case of O=C(O)CCCC(=O)O [Glutaric acid], the “pKa 2” value [1] is given as 5.4, the “Fresh Developer 10 min exercise (charge values)” value [2, 3] is given as −66.2 μC/g and the “Fresh developer 2 min shake (charge values)” value [2, 3] is given as −26.5 μC/g. The “Rebuilt developer 2 min shake (charge values)” value [2, 3] was −45.7 μC/g, the “Rebuilt developer 10 min exercise (charge values)” value [2, 3] was −58.1 μC/g and the “Fresh Developer 10 min exercise (charge values)” value [2, 4] was −42.5 μC/g. The “Fresh developer 2 min shake (charge values)” value [2, 4] was −16.6 μC/g, the “Rebuilt developer 2 min shake (charge values)” value [2, 4] was −15.6 μC/g and the “Rebuilt developer 10 min exercise (charge values)” value [2, 4] was −30.1 μC/g. For the same compound, the “Fresh Developer 10 min exercise (charge values)” value [2, 5] was −11.8 μC/g, the “Fresh developer 2 min shake (charge values)” value [2, 5] was −6.2 μC/g and the “Rebuilt developer 2 min shake (charge values)” value [2, 5] was −4.5 μC/g. For the same compound, the “Rebuilt developer 10 min exercise (charge values)” value [2, 5] was −13.3 μC/g.
For C=C(CC(=O)O)C(=O)O [Itaconic acid], the “Fresh Developer 10 min exercise (charge values)” value [2, 3] was −63.1 μC/g, the “Fresh developer 2 min shake (charge values)” value [2, 3] was −20.6 μC/g and the “Rebuilt developer 2 min shake (charge values)” value [2, 3] was −41.3 μC/g. The “Rebuilt developer 10 min exercise (charge values)” value [2, 3] was −49.7 μC/g, the “Fresh Developer 10 min exercise (charge values)” value [2, 4] was −33.7 μC/g and the “Fresh developer 2 min shake (charge values)” value [2, 4] was −13.6 μC/g. For the same compound, the “Rebuilt developer 2 min shake (charge values)” value [2, 4] was −10.2 μC/g, the “Rebuilt developer 10 min exercise (charge values)” value [2, 4] was −22.6 μC/g and the “Fresh Developer 10 min exercise (charge values)” value [2, 5] was −24.1 μC/g. The “Fresh developer 2 min shake (charge values)” value [2, 5] was −11.9 μC/g, the “Rebuilt developer 2 min shake (charge values)” value [2, 5] was −6.4 μC/g and the “Rebuilt developer 10 min exercise (charge values)” value [2, 5] was −18.7 μC/g.
With CCCCCCCCCCCC(=O)O [Lauric acid] the “Fresh Developer 10 min exercise (charge values)” value [2, 3] was −88.1 μC/g, the “Fresh developer 2 min shake (charge values)” value [2, 3] was −44.3 μC/g and the “Rebuilt developer 2 min shake (charge values)” value [2, 3] was −60.1 μC/g. The “Rebuilt developer 10 min exercise (charge values)” value [2, 3] was −77.5 μC/g, the “Fresh Developer 10 min exercise (charge per mass)” value [2, 6] was −96.0 μC/g and the “Fresh developer 2 min shake (charge per mass)” value [2, 6] was −40.9 μC/g. The “Rebuilt developer 2 min shake (charge per mass)” value [2, 6] was −83.5 μC/g, the “Rebuilt developer 10 min exercise (charge per mass)” value [2, 6] was −110.1 μC/g and the “Fresh Developer 10 min exercise (charge values)” value [2, 4] was −104.5 μC/g. For the same compound, the “Fresh developer 2 min shake (charge values)” value [2, 4] was −43.7 μC/g, the “Rebuilt developer 2 min shake (charge values)” value [2, 4] was −69.6 μC/g and the “Rebuilt developer 10 min exercise (charge values)” value [2, 4] was −90.8 μC/g. The “Fresh Developer 10 min exercise (charge per mass)” value [2, 9] was −125.5 μC/g, the “Fresh developer 2 min shake (charge per mass)” value [2, 9] was −52.5 μC/g and the “Rebuilt developer 2 min shake (charge per mass)” value [2, 9] was −114.0 μC/g. For the same compound, the “Rebuilt developer 10 min exercise (charge per mass)” value [2, 9] was −123.0 μC/g, the “Fresh Developer 10 min exercise (charge values)” value [2, 5] was “bicharged” and the “Fresh developer 2 min shake (charge values)” value [2, 5] was −14.7 μC/g. For the same compound, the “Rebuilt developer 2 min shake (charge values)” value [2, 5] was −35.0 μC/g, the “Rebuilt developer 10 min exercise (charge values)” value [2, 5] was “bicharged” and the “Fresh Developer 10 min exercise (charge per mass)” value [2, 12] was “bicharged”. For the same compound, the “Fresh developer 2 min shake (charge per mass)” value [2, 12] was −8.7 μC/g, the “Rebuilt developer 2 min shake (charge per mass)” value [2, 12] was −12.1 μC/g and the “Rebuilt developer 10 min exercise (charge per mass)” value [2, 12] was −6.2 μC/g.
With O=C(O)c1ccccc1O [Salicylic acid] the “Fresh Developer 10 min exercise (charge values)” value [2, 3] was −65.5 μC/g, the “Fresh developer 2 min shake (charge values)” value [2, 3] was −22.7 μC/g and the “Rebuilt developer 2 min shake (charge values)” value [2, 3] was −46.5 μC/g. For the same compound, the “Rebuilt developer 10 min exercise (charge values)” value [2, 3] was −62.0 μC/g, the “Fresh Developer 10 min exercise (charge values)” value [2, 4] was −50.5 μC/g and the “Fresh developer 2 min shake (charge values)” value [2, 4] was −21.0 μC/g. For the same compound, the “Rebuilt developer 2 min shake (charge values)” value [2, 4] was −25.5 μC/g, the “Rebuilt developer 10 min exercise (charge values)” value [2, 4] was −46.5 μC/g and the “Fresh Developer 10 min exercise (charge values)” value [2, 5] was −41.1 μC/g. The “Fresh developer 2 min shake (charge values)” value [2, 5] was −17.4 μC/g, the “Rebuilt developer 2 min shake (charge values)” value [2, 5] was −17.0 μC/g and the “Rebuilt developer 10 min exercise (charge values)” value [2, 5] was −42.8 μC/g.
With O=C(O)c1ccc(C(=O)O)cc1 [Terephthalic acid] the “Fresh Developer 10 min exercise (charge values)” value [2, 3] was −58.9 μC/g, the “Fresh developer 2 min shake (charge values)” value [2, 3] was −25.5 μC/g and the “Rebuilt developer 2 min shake (charge values)” value [2, 3] was −45.3 μC/g. The “Rebuilt developer 10 min exercise (charge values)” value [2, 3] was −49.8 μC/g, the “Fresh Developer 10 min exercise (charge per mass)” value [2, 6] was −37.2 μC/g and the “Fresh developer 2 min shake (charge per mass)” value [2, 6] was −30.3 μC/g. For the same compound, the “Rebuilt developer 2 min shake (charge per mass)” value [2, 6] was −43.9 μC/g, the “Rebuilt developer 10 min exercise (charge per mass)” value [2, 6] was −35.6 μC/g and the “Fresh Developer 10 min exercise (charge values)” value [2, 4] was −46.9 μC/g. For the same compound, the “Fresh developer 2 min shake (charge values)” value [2, 4] was −24.4 μC/g, the “Rebuilt developer 2 min shake (charge values)” value [2, 4] was −34.4 μC/g and the “Rebuilt developer 10 min exercise (charge values)” value [2, 4] was −37.9 μC/g. The “Fresh Developer 10 min exercise (charge per mass)” value [2, 9] was −19.7 μC/g, the “Fresh developer 2 min shake (charge per mass)” value [2, 9] was −34.9 μC/g and the “Rebuilt developer 2 min shake (charge per mass)” value [2, 9] was −15.2 μC/g. The “Rebuilt developer 10 min exercise (charge per mass)” value [2, 9] was −12.9 μC/g, the “Fresh Developer 10 min exercise (charge values)” value [2, 5] was −13.8 μC/g and the “Fresh developer 2 min shake (charge values)” value [2, 5] was −28.3 μC/g. The “Rebuilt developer 2 min shake (charge values)” value [2, 5] was −16.5 μC/g, the “Rebuilt developer 10 min exercise (charge values)” value [2, 5] was −13.3 μC/g and the “Fresh Developer 10 min exercise (charge per mass)” value [2, 12] was −10.0 μC/g. For the same compound, the “Fresh developer 2 min shake (charge per mass)” value [2, 12] was −32.8 μC/g, the “Rebuilt developer 2 min shake (charge per mass)” value [2, 12] was −18.2 μC/g and the “Rebuilt developer 10 min exercise (charge per mass)” value [2, 12] was −5.8 μC/g.
In the case of O=C(O)c1ccccc1C(=O)O [phthalic], the “pKa 1” value [1] is given as 3.0 and the “pKa 2” value [1] is given as 5.4.
